Assay results: patent US7834024B2, “Compositions and methods for inhibition of the JAK pathway” (Rigel Pharmaceuticals, Inc., priority 2007, dated 2010)

System: Ramos B-Cell Line Stimulated with IL-4 (JAK-1 and JAK-3 / Stat-6, CD23)
Assay: Assay for Ramos B-Cell Line Stimulated with IL-4 (CD23 upregulation, FACS)
Format: cell-based
Conditions: Homo sapiens, Ramos, human Ramos B cells, compound 1 hour, IL-4 50 units/mL for 20-24 hours, anti-CD23-PE FACS; read-out: Example 2 (IC50)
Excerpt: One means of assaying for such inhibition is detection of the effect of the 2,4-pyrimidinediamine compounds on the upregulation of downstream gene products. In the Ramos/IL4 assay, B-cells are stimulated with the cytokine Interleukin-4 (IL-4) leading to the activation of the JAK/Stat pathway through phosphorylation of the JAK family kinases, JAK1 and JAK3, which in turn phosphorylate and activate the transcription factor Stat-6. […] To study the effect of inhibitors (e.g., the 2,4-substituted pyrimindinediamine compounds described herein) on the JAK1 and JAK3 kinases, human Ramos B cells are stimulated with human IL-4. 20 to 24 hours post stimulation, cells are stained for upregulation of CD23 and analyzed using flow cytometry (FACS).
B-cells stimulated with cytokine Interleukin-4 (IL-4) activate the JAK/Stat pathway through phosphorylation of the JAK family kinases, JAK-1 and JAK-3, which in turn phosphorylate and activate the transcription factor Stat-6. […] To study the effect of inhibitors on the JAK family kinases, human Ramos B cells were stimulated with human IL-4.
Cells were maintained at a density of 3.5×10^5. The day before the experiment, Ramos B-cells were diluted to 3.5×10^5 cells/mL to ensure that they were in a logarithmic growth phase.
Cells were spun down and suspended in RPMI with 5% serum. 5×10^4 cells were used per point in a 96-well tissue culture plate. Cells were pre-incubated with compound or DMSO (Sigma-Aldrich, St. Louis, Mo., Cat No. D2650) vehicle control for 1 hour in a 37° C. incubator. Cells were then stimulated with IL-4 (Peprotech Inc., Rocky Hill, N.J., Cat No. 200-04) for a final concentration of 50 units/mL for 20-24 hours. […] Detection was performed using a BD LSR I System Flow Cytometer, purchased from Becton Dickinson Biosciences of San Jose, Calif.

| IC50 [nM] | Compound |
| --- | --- |
| 420 | NC(=O)COc1ccc(Nc2nc(Nc3ccc(C(N)=O)cc3)ncc2F)cc1 [Compound I-25, N4-(4-Aminocarbonylmethoxyphenyl)-N2-(4-aminocarbonylphenyl)-5-fluoro-2,4-pyrimidinediamine] |
| 189 | N#CCc1ccc(Nc2ncc(F)c(Nc3cccc(OCC(N)=O)c3)n2)cc1 [Compound I-65, N4-(3-Aminocarbonylmethoxyphenyl)-N2-(4-cyanomethylphenyl)-5-fluoro-2,4-pyrimidinediamine] |
| 1970 | CNC(=O)COc1cccc(Nc2ncc(N)c(Nc3ccc4cn[nH]c4c3)n2)c1 [Compound V-4] |
| 382 | N#CCc1ccc(Nc2ncc(F)c(Nc3ccc(Cc4ccncc4)cc3)n2)cc1 [Compound I-131, N2-(4-Cyanomethylphenyl)-5-fluoro-N4-[4-(4-pyridinylmethyl)phenyl]-2,4-pyrimidinediamine] |
| 69.3 | COc1cc(Nc2ncc(F)c(Nc3ccc4c(c3)NC(=O)C(C)(C)O4)n2)cc(OCC#N)c1OC [II-15, N2-(3-Cyanomethoxy-4,5-dimethoxyphenyl)-N4-(2,2-dimethyl-3-oxo-4H-benzo[1,4]oxazin-6-yl)-5-fluoro-2,4-pyrimidinediamine] |
| 56.3 | Cc1cc(Nc2nc(Nc3ccc(C(N)=O)c(Cl)c3)ncc2F)ccc1N1CCN(C)CC1 [Compound I-11, N2-(4-Aminocarbonyl-3-chlorophenyl)-5-fluoro-N4-[3-methyl-4-(4-methylpiperazin-1-yl)phenyl]-2,4-pyrimidinediamine] |
| 83 | N#CCOc1ccc(Nc2nc(Nc3ccc(CC#N)cc3)ncc2F)cc1Cl [Compound I-100, N4-(3-Chloro-4-cyanomethoxyphenyl)-N2-(4-cyanomethylphenyl)-5-fluoro-2,4-pyrimidinediamine] |
| 195 | N#CCc1ccc(Nc2ncc(F)c(Nc3ccc(CC#N)cc3)n2)cc1 [Compound I-71, N2,N4-Bis(4-cyanomethylphenyl)-5-fluoro-2,4-pyrimidinediamine] |
| 3.56 | CNC(=O)c1cc(Nc2ncc(F)c(Nc3ccc(OCC#N)cc3)n2)ccc1N1CCN(C)CC1 [Compound I-43, N4-(4-Cyanomethoxyphenyl)-5-fluoro-N2-[3-methylaminocarbonyl-4-(4-methylpiperazin-1-yl)phenyl]-2,4-pyrimidinediamine] |

Same assay, conditions: human Ramos B cells, compound 1 hour, IL-4 50 units/mL for 20-24 hours, anti-CD23-PE FACS; read-out: Example 2 (IC50)

| Compound | IC50 [nM] |
| --- | --- |
| CC(C#N)Oc1ccc(Nc2nc(Nc3cccc(C#N)c3)ncc2F)cc1 (stereo not drawn) [Compound I-80, N4-[4-(I-Cyanoethoxy)phenyl]-N2-(3-cyanophenyl)-5-fluoro-2,4-pyrimidinediamine] | 189 |
| N2-(4-Cyanomethyl phenyl)-5-fluoro-N4-(5-methoxycarbonylthiophen-2-yl)-2,4-pyrimidinediamine [Compound I-122] | 723 |

The remaining lines, values ahead:

| IC50 [nM] | Compound |
| --- | --- |
| 163 | Cc1cnc(Nc2cccc(C(N)=O)c2)nc1Nc1ccc2c(n1)NC(=O)C(C)(C)O2 [II-40, N2-(3-Aminocarbonylphenyl)-N4-(2,2-dimethyl-3-oxo-4H-5-pyrido[1,4]oxazin-6-yl)-5-methyl-2,4-pyrimidinediamine] |
| 130 | CNC(=O)COc1cc(Nc2ncc(F)c(Nc3ccc4c(n3)NC(=O)C(C)(C)O4)n2)cc(OC)c1OC [II-21, N2-[4,5-Dimethoxy-3-(N-methylaminocarbonylmethyleneoxy)phenyl]-N4-(2,2-dimethyl-3-oxo-4H-5-pyrido[1,4]oxazin-6-yl)-5-fluoro-2,4-pyrimidinediamine] |
| 672 | CNC(=O)COc1cccc(Nc2ncc(F)c(Nc3ccc4c(c3)N(Cc3ccccn3)C(=O)CO4)n2)c1 [II-14, 5-Fluoro-N2-[3-(N-methylaminocarbonylmethyleneoxy)phenyl]-N4-[3-oxo-4-(2-pyridinylmethyl)-2H-benzo[1,4]oxazin-6-yl]-2,4-pyrimidinediamine] |
| 189 | Cc1cnc(Nc2cccc(C(N)=O)c2)nc1Nc1ccc2c(c1)NC(=O)CS2 [II-44, N2-(3-Aminocarbonylphenyl)-N4-(3,4-dihydro-2H-3-oxo-4H-benz[1,4]thiazin-6-yl)-5-methyl-2,4-pyrimidinediamine] |
